IC50, Activity and inhibition data for 31 molecules are collected here from ChEMBL document CHEMBL1157798, “Iminochromene inhibitors of dynamins I and II GTPase activity and endocytosis” (J Med Chem, 2010).

Calls of active or inactive are those of the source. The calls are words filed in the database; no cut-off is given here.

A short description of data set [1]: Inhibition of sheep brain dynamin 1 by malachite green GTPase assay. Also noted: species or system Ovis aries.
The target in a further data set is T1, Dynamin-1 (Rattus norvegicus, UniProt P21575).
T1 sequence (P21575 whole entry): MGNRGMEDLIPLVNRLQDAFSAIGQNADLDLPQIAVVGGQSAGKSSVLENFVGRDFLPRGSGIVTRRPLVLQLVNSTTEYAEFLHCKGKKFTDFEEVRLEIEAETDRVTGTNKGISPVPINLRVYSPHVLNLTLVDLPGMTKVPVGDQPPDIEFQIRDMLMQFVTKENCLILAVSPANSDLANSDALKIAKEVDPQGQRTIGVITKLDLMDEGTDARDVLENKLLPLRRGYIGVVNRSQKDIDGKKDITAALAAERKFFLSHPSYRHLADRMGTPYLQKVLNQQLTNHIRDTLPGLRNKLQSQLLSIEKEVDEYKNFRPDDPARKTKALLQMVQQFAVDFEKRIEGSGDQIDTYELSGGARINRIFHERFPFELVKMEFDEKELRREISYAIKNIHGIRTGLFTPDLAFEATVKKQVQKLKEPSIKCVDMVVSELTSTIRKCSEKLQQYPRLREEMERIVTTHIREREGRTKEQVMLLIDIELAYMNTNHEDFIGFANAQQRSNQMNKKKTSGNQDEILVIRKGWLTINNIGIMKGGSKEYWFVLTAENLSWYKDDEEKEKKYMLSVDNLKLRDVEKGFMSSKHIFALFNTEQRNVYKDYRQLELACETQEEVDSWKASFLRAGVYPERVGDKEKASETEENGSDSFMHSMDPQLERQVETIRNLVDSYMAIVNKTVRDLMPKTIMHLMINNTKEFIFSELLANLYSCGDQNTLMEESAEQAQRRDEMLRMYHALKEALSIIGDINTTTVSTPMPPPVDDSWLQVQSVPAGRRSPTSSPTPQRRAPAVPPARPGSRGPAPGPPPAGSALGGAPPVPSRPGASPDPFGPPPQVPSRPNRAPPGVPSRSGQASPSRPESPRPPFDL
The data set can be described thus: Inhibition of dynamin 1-mediated synaptic vesicle endocytosis in Sprague-Dawley rat synaptosomes assessed as uptake of FM 4-64 dye after 30 mins by automated acquisition and analysis system. It counts as subcellular, Brain.

Another data set concerns U2OS. The data set is described as follows: Cytotoxicity against human U2OS cells assessed as change in cell morphology after 30 mins. It counts as cell-based. The settings on record: 0.5 h.
The species entered for data set [2] is Ovis aries. The data set is described as follows: Inhibition of sheep brain dynamin 1 at 100 uM by malachite green GTPase assay.
The species entered for data set [3] is Ovis aries. The data set can be described thus: Inhibition of sheep brain dynamin 1 at 300 uM by malachite green GTPase assay.

What is called IC50 is the concentration needed to halve the response being measured. `N=c1oc2cc(O)c(O)cc2cc1C(=O)NCCCCNC(=O)c1cc2cc(O)c(O)cc2oc1=N` had an IC50 in data set [1] of 3.2 µM.

Take `N=c1oc2c(O)cccc2cc1C(=O)NCCCNC(=O)c1cc2cccc(O)c2oc1=N`: the half-maximal inhibitory concentration (IC50) is 36.6 µM in data set [1] and “Not Active” on Dynamin-1. The Activity entry in the data set on U2OS is “Non-toxic”.

Take `N#C/C(=C\c1ccc(C2(C(F)(F)F)N=N2)cc1)C(=O)NCCCNC(=O)/C(C#N)=C/c1ccc(O)c(O)c1`: in data set [1], the IC50 came out at 36 µM.

What is called inhibition is the relative decrease from the control value, in per cent. In the data set listed under Ovis aries [2], `N=c1oc2cc(O)ccc2cc1C(=O)NCCCCCNC(=O)c1cc2ccc(O)cc2oc1=N` showed an inhibition of under 50%.

As for `N=c1oc2c(O)c(O)ccc2cc1C(=O)NCCCCNC(=O)c1cc2ccc(O)c(O)c2oc1=N`, half-maximal inhibition in data set [1] (IC50) was put at 4.3 µM.

On to `N=c1oc2ccccc2cc1C(=O)NCCCCCCNC(=O)c1cc2ccccc2oc1=N`, for which the IC50 in data set [1] is over 300 µM. The molecule also registered an inhibition in the data set filed under Ovis aries [2] of under 50%.

Turning to `N#C/C(=C\c1ccc(O)cc1)C(=O)NCCCNC(=O)/C(C#N)=C/c1ccc(O)c(O)c1`, inhibition in data set [1] was half-maximal at 51 µM (IC50).

For the molecule `N=c1oc2ccccc2cc1C(=O)NCCCCNC(=O)c1cc2ccccc2oc1=N`, in data set [1], the half-maximal inhibitory concentration (IC50) was over 300 µM. In addition, in the data set listed under Ovis aries [2], the inhibition was under 50%.

With `N#C/C(=C\c1ccc(N=[N+]=[N-])cc1)C(=O)NCCCNC(=O)/C(C#N)=C/c1ccc(O)c(O)c1`, half-maximal inhibition in data set [1] (IC50) was put at 6.4 µM.

Consider `N=c1oc2c(O)c(O)ccc2cc1C(=O)NCCCCCNC(=O)c1cc2ccc(O)c(O)c2oc1=N`, for which 19 µM corresponded to half-maximal inhibition in data set [1] (IC50).

For `N=c1oc2c(O)cccc2cc1C(=O)NCCCCNC(=O)c1cc2cccc(O)c2oc1=N`, the inhibition in the data set filed under Ovis aries [2] was under 50%.

Molecule `N=c1oc2c(O)cccc2cc1C(=O)NCCCCCCNC(=O)c1cc2cccc(O)c2oc1=N` registered an inhibition in the data set filed under Ovis aries [2] of under 50%.

Consider `N=c1oc2ccccc2cc1C(=O)NCCNC(=O)c1cc2ccccc2oc1=N`, for which the IC50 in data set [1] is over 300 µM. This molecule came in with an inhibition in the data set filed under Ovis aries [2] of under 50%.

As for `N=c1oc2cc(O)c(O)cc2cc1C(=O)NCCCNC(=O)c1cc2cc(O)c(O)cc2oc1=N`, the 50% inhibitory concentration (IC50) in data set [1] is 0.26 µM; on Dynamin-1 (read-out: IC50), 40.4 µM. In addition, the Activity result in the data set on U2OS was “Non-toxic”.

The molecule `N=c1oc2c(O)cccc2cc1C(=O)NCCNC(=O)c1cc2cccc(O)c2oc1=N` gave an inhibition in the data set filed under Ovis aries [2] of under 50%.

For `N=c1oc2c(O)c(O)ccc2cc1C(=O)NCCCNC(=O)c1cc2ccc(O)c(O)c2oc1=N`, the 50% inhibitory concentration (IC50) in data set [1] came to 0.45 µM; at Dynamin-1 (read-out: IC50), 99.5 µM. The Activity result with U2OS is reported as “Non-toxic”.

As to `N=c1oc2ccccc2cc1C(=O)NCCCNC(=O)c1cc2ccccc2oc1=N`, the IC50 in data set [1] was over 300 µM. This molecule also gave an inhibition in the data set listed under Ovis aries [2] of under 50%.

The molecule `N=c1oc2cc(O)ccc2cc1C(=O)NCCCCCCNC(=O)c1cc2ccc(O)cc2oc1=N` had an inhibition in the data set listed under Ovis aries [2] of under 50%.

As to `N=c1oc2c(O)c(O)ccc2cc1C(=O)NCCCCCCNC(=O)c1cc2ccc(O)c(O)c2oc1=N`, 70 µM corresponded to half-maximal inhibition in data set [1] (IC50).

With `N#C/C(=C\c1ccccc1)C(=O)NCCCNC(=O)/C(C#N)=C/c1ccc(O)c(O)c1`, the IC50 in data set [1] was 146 µM.

In data set [1], `N=c1oc2cc(O)c(O)cc2cc1C(=O)NCCCCCCNC(=O)c1cc2cc(O)c(O)cc2oc1=N` yielded an IC50 of 82 µM.

On to `N=c1oc2c(O)c(O)ccc2cc1C(=O)NCCNC(=O)c1cc2ccc(O)c(O)c2oc1=N`, for which the half-maximal inhibitory concentration (IC50) was 0.33 µM in data set [1] and “Not Active” on Dynamin-1.

Molecule `N=c1oc2c(O)cccc2cc1C(=O)NCCCCCNC(=O)c1cc2cccc(O)c2oc1=N` had an inhibition in the data set listed under Ovis aries [2] of under 50%.

The molecule `N=c1oc2cc(O)c(O)cc2cc1C(=O)NCCNC(=O)c1cc2cc(O)c(O)cc2oc1=N` yielded an IC50 in data set [1] of 6 µM.

`N#C/C(=C\c1ccc(O)c(O)c1)C(=O)NCCCNC(=O)/C(C#N)=C/c1ccc(O)c(O)c1` had an IC50 in data set [1] of 1.7 µM.

`N=c1oc2cc(O)ccc2cc1C(=O)NCCCNC(=O)c1cc2ccc(O)cc2oc1=N`: the IC50 was determined as 17.3 µM in data set [1] and 66.1 µM on Dynamin-1 (read-out: IC50).

Turning to `N=c1oc2cc(O)ccc2cc1C(=O)NCCNC(=O)c1cc2ccc(O)cc2oc1=N`, in data set [1], the midpoint of inhibition, the IC50, lay at 100 µM. In addition, the inhibition result in the data set listed under Ovis aries [3] is “inactive”.

Consider `COc1ccc(/C=C(\C#N)C(=O)NCCCNC(=O)/C(C#N)=C/c2ccc(O)c(O)c2)cc1OC`, for which the IC50 in data set [1] stood at 44 µM.

In turn, `N=c1oc2ccccc2cc1C(=O)NCCCCCNC(=O)c1cc2ccccc2oc1=N` registered a half-maximal inhibitory concentration (IC50) in data set [1] of over 300 µM. For the same molecule, the inhibition in the data set filed under Ovis aries [2] was under 50%.

For the molecule `N=c1oc2cc(O)c(O)cc2cc1C(=O)NCCCCCNC(=O)c1cc2cc(O)c(O)cc2oc1=N`, the 50% inhibitory concentration (IC50) in data set [1] was 17 µM.

The molecule `N=c1oc2cc(O)ccc2cc1C(=O)NCCCCNC(=O)c1cc2ccc(O)cc2oc1=N` came in with an inhibition in the data set filed under Ovis aries [2] of under 50%.
